SMILES strings stand for the structures.

Holding throughout (assay): MIC, NCCLS broth microdilution
What all share (format): cell-based

One test concerns Serratia marcescens S6. Conditions: for MIC of antibiotic: antibiotic alone, no inhibitor.
In test [1] the test system is Pseudomonas aeruginosa 1973E. Conditions: for MIC of antibiotic: antibiotic alone, no inhibitor. An outline of the steps: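 Growth inhibition read by eye after overnight incubation (30° C. or 37° C.) defines the MIC, using NCCLS M7-A5 broth microdilution with ≤1% DMSO. When combinations were tested, only the formula I compound was titrated and each partner was fixed at 4 μg/mL.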

A further test relates to Acinetobacter sp. J2. Particulars: for MIC of antibiotic / MIC of antibiotic at fixed inhibitor concentration of 4 mg/L: Acinetobacter baumannii J2; for MIC of antibiotic: antibiotic alone, no inhibitor.
Test [2] relates to Stenotrophomonas malthophilia 1AC736. Conditions: for MIC of antibiotic / MIC of antibiotic at fixed inhibitor concentration of 4 mg/L: Stenotrophomonas maltophilia 1AC736; for MIC of antibiotic: antibiotic alone, no inhibitor.
The subject of another test is Enterobacter cloacae P99. Particulars: for MIC of antibiotic: antibiotic alone, no inhibitor.
In test [3] the test system is Pseudomonas aeruginosa MK1184. Particulars: for MIC of antibiotic: antibiotic alone, no inhibitor.
Test [4] concerns Klebsiella pneumoniae CF104. Particulars: for MIC of antibiotic: antibiotic alone, no inhibitor.
The mark [5] stands for this setting: MIC of antibiotic compound 1 with the labelled bridged monobactam of formula II and clavulanate, 4 mg/L each.

Take `NC(=O)OCC1C(NC(=O)C(=NOCc2cc(=O)c(O)cn2O)c2nc(N)sc2Cl)C(=O)N1OS(=O)(=O)O` (stereo not shown) [Compound 47]: the MIC of antibiotic with Serratia marcescens S6 is given as 2 mg/L; in test [1], 8 mg/L; in the test with Acinetobacter sp. J2 it was >32 mg/L; in test [2], 1 mg/L; in the test on Enterobacter cloacae P99, >32 mg/L; in test [3] it was 4 mg/L. Also, the MIC of antibiotic in test [4] is reported as >32 mg/L. The “MIC of antibiotic at fixed inhibitor concentration of 4 mg/L” value with Serratia marcescens S6 (with 102 and clavulanate) was 2 mg/L; in the test on Serratia marcescens S6 (with 324 and clavulanate), 2 mg/L; in test [1] (with 102 and clavulanate) it was 4 mg/L; in test [1] (with 324 and clavulanate), 8 mg/L; with Acinetobacter sp. J2 (with 102 and clavulanate) it was >32 mg/L; in the test on Acinetobacter sp. J2 (with 324 and clavulanate), >32 mg/L. Also, the “MIC of antibiotic at fixed inhibitor concentration of 4 mg/L” value was determined as 1 mg/L in test [2] (with 102 and clavulanate); 1 mg/L in test [2] (with 324 and clavulanate); 16 mg/L in the test on Enterobacter cloacae P99 (with 102 and clavulanate); 32 mg/L in the test on Enterobacter cloacae P99 (with 324 and clavulanate); 2 mg/L in test [3] (with 102 and clavulanate); 4 mg/L in test [3] (with 324 and clavulanate). Also, the “MIC of antibiotic at fixed inhibitor concentration of 4 mg/L” value in test [4] (with 102 and clavulanate) came out at 4 mg/L; in test [4] (with 324 and clavulanate), 2 mg/L.
`NC(=O)Nc1ccc(NC(=O)N2CC[C@@H]3[C@H]2C(=O)N3S(=O)(=O)[O-])cc1.[Na+]` [Compound 315]: the “MIC of antibiotic at fixed inhibitor concentration (4 mg/L)” value in the test on Serratia marcescens S6 (setting [5]) was 0.25 mg/L; in test [1] (setting [5]) it was 4 mg/L; with Acinetobacter sp. J2 (Acinetobacter sp. J2, MIC of antibiotic compound 1 with the labelled bridged monobactam of formula II and clavulanate, 4 mg/L each), 4 mg/L; in test [2] (Stenotrophomonas malthophilia 1AC736, MIC of antibiotic compound 1 with the labelled bridged monobactam of formula II and clavulanate, 4 mg/L each), 0.125 mg/L; in the test with Enterobacter cloacae P99 (setting [5]) it was 8 mg/L; in test [3] (setting [5]), >32 mg/L. In addition, in test [4] (setting [5]), the “MIC of antibiotic at fixed inhibitor concentration (4 mg/L)” value is given as 1 mg/L.
As to `C[C@H]1[C@H](NC(=O)/C(=N\OCc2cc(=O)c(O)cn2O)c2nc(N)sc2Cl)C(=O)N1OS(=O)(=O)O` [Compound 29, (3S,4S)-3-{(2Z)-2-(2-amino-5-chloro(1,3-thiazol-4-yl))-3-[(1,5-dihydroxy-4-oxo(2-hydropyridyl))methoxy]-3-azaprop-2-enoylamino}-4-methyl-2-oxoazetidinyl hydroxysulfonate], the MIC of antibiotic in the test on Serratia marcescens S6 was 32 mg/L; in test [1], 4 mg/L; in the test with Acinetobacter sp. J2 it was >32 mg/L; in test [2], 1 mg/L; with Enterobacter cloacae P99, >32 mg/L; in test [3], >32 mg/L. Besides, in test [4], the MIC of antibiotic is recorded as >32 mg/L. In addition, the “MIC of antibiotic at fixed inhibitor concentration of 4 mg/L” value is reported as 1 mg/L in the test on Serratia marcescens S6 (with 102 and clavulanate); 8 mg/L in the test on Serratia marcescens S6 (with 102 and sulbactam); 8 mg/L in the test with Serratia marcescens S6 (with 323 and sulbactam); 8 mg/L in test [1] (with 102 and clavulanate); 8 mg/L in test [1] (with 102 and sulbactam); 8 mg/L in test [1] (with 323 and sulbactam). Moreover, the “MIC of antibiotic at fixed inhibitor concentration of 4 mg/L” value is given as >32 mg/L with Acinetobacter sp. J2 (with 102 and clavulanate); 2 mg/L in the test on Acinetobacter sp. J2 (with 102 and sulbactam); 2 mg/L in the test with Acinetobacter sp. J2 (with 323 and sulbactam); 0.5 mg/L in test [2] (with 102 and clavulanate); 1 mg/L in test [2] (with 102 and sulbactam); 1 mg/L in test [2] (with 323 and sulbactam). Besides, the “MIC of antibiotic at fixed inhibitor concentration of 4 mg/L” value with Enterobacter cloacae P99 (with 102 and clavulanate) is listed as 0.25 mg/L; in the test with Enterobacter cloacae P99 (with 102 and sulbactam), 8 mg/L; in the test on Enterobacter cloacae P99 (with 323 and sulbactam) it was 8 mg/L; in test [3] (with 102 and clavulanate), 8 mg/L; in test [3] (with 102 and sulbactam) it was 4 mg/L; in test [3] (with 323 and sulbactam), 8 mg/L. The “MIC of antibiotic at fixed inhibitor concentration of 4 mg/L” value in test [4] (with 102 and clavulanate) was found to be 0.5 mg/L; in test [4] (with 102 and sulbactam), 2 mg/L; in test [4] (with 323 and sulbactam), 2 mg/L.
On to `COn1cc(O)c(=O)cc1CON=C(C(=O)N[C@@H]1C(=O)N(S(=O)(=O)O)[C@H]1C)c1csc(N)n1` [Compound 5, (3S,4S)-3-{2-(2-amino(1,3-thiazol-4-yl))-3-[(5-hydroxy-1-methoxy-4-oxo(2-hydropyridyl))methoxy]-3-azaprop-2-enoylamino}-4-methyl-2-oxoazetidinesulfonic acid], for which the MIC of antibiotic in the test with Serratia marcescens S6 is listed as 8 mg/L; in test [1] it was >32 mg/L; in the test with Acinetobacter sp. J2 it was >32 mg/L; in test [2], 16 mg/L; in the test on Enterobacter cloacae P99, 32 mg/L; in test [3], >32 mg/L. In addition, the MIC of antibiotic in test [4] is recorded as >32 mg/L. Moreover, the “MIC of antibiotic at fixed inhibitor concentration of 4 mg/L” value with Serratia marcescens S6 (with 102 and clavulanate) was 1 mg/L; in test [1] (with 102 and clavulanate), >32 mg/L; in the test with Acinetobacter sp. J2 (with 102 and clavulanate), 32 mg/L; in test [2] (with 102 and clavulanate), 4 mg/L; with Enterobacter cloacae P99 (with 102 and clavulanate), 8 mg/L; in test [3] (with 102 and clavulanate), >32 mg/L. The “MIC of antibiotic at fixed inhibitor concentration of 4 mg/L” value in test [4] (with 102 and clavulanate) worked out at 8 mg/L.
As to `CC1C(NC(=O)C(=NOCc2cc(=O)c(O)cn2O)c2noc(N)n2)C(=O)N1S(=O)(=O)O` (stereo not shown) [Compound 16], the MIC of antibiotic (in the test on Serratia marcescens S6; in test [1]; in the test with Acinetobacter sp. J2; in test [2]; in the test with Enterobacter cloacae P99; in test [3]) was >32 mg/L each time. The MIC of antibiotic in test [4] is >32 mg/L. The “MIC of antibiotic at fixed inhibitor concentration of 4 mg/L” value with Serratia marcescens S6 (with 102 and clavulanate) is on record as >32 mg/L; in test [1] (with 102 and clavulanate), 16 mg/L; in the test on Acinetobacter sp. J2 (with 102 and clavulanate), 16 mg/L; in test [2] (with 102 and clavulanate) it was 2 mg/L; in the test on Enterobacter cloacae P99 (with 102 and clavulanate), >32 mg/L; in test [3] (with 102 and clavulanate), 16 mg/L. In test [4] (with 102 and clavulanate), the “MIC of antibiotic at fixed inhibitor concentration of 4 mg/L” value is 32 mg/L.
Turning to `C[C@H]1[C@H](NC(=O)/C(=N\OCc2cc(=O)c(O)cn2C)c2csc(N)n2)C(=O)N1S(=O)(=O)O` [Compound 6, (3S,4S)-3-{(2Z)-2-(2-amino(1,3-thiazol-4-yl))-3-[(5-hydroxy-1-methyl-4-oxo(2-hydropyridyl))methoxy]-3-azaprop-2-enoylamino}-4-methyl-2-oxoazetidinesulfonic acid], the MIC of antibiotic is reported as 4 mg/L in the test on Serratia marcescens S6; >32 mg/L in test [1]; >32 mg/L in the test with Acinetobacter sp. J2; 8 mg/L in test [2]; 16 mg/L in the test on Enterobacter cloacae P99; >32 mg/L in test [3]. Besides, in test [4], the MIC of antibiotic was >32 mg/L. For the same compound, the “MIC of antibiotic at fixed inhibitor concentration of 4 mg/L” value in the test on Serratia marcescens S6 (with 102 and clavulanate) is listed as 0.5 mg/L; in the test on Serratia marcescens S6 (with 206 and clavulanate) it was 4 mg/L; in the test with Serratia marcescens S6 (with 315 and clavulanate), 4 mg/L; in test [1] (with 102 and clavulanate), >32 mg/L; in test [1] (with 206 and clavulanate), >32 mg/L; in test [1] (with 315 and clavulanate), >32 mg/L. The “MIC of antibiotic at fixed inhibitor concentration of 4 mg/L” value is given as >32 mg/L in the test with Acinetobacter sp. J2 (with 102 and clavulanate); 32 mg/L with Acinetobacter sp. J2 (with 206 and clavulanate); >32 mg/L in the test with Acinetobacter sp. J2 (with 315 and clavulanate); 4 mg/L in test [2] (with 102 and clavulanate); 4 mg/L in test [2] (with 206 and clavulanate); 2 mg/L in test [2] (with 315 and clavulanate). The “MIC of antibiotic at fixed inhibitor concentration of 4 mg/L” value in the test with Enterobacter cloacae P99 (with 102 and clavulanate) was 8 mg/L; with Enterobacter cloacae P99 (with 206 and clavulanate), 16 mg/L; in the test with Enterobacter cloacae P99 (with 315 and clavulanate), 4 mg/L; in test [3] (with 102 and clavulanate), >32 mg/L; in test [3] (with 206 and clavulanate), >32 mg/L; in test [3] (with 315 and clavulanate), >32 mg/L. The “MIC of antibiotic at fixed inhibitor concentration of 4 mg/L” value in test [4] (with 102 and clavulanate) is <0.06 mg/L; in test [4] (with 206 and clavulanate) it was 0.5 mg/L; in test [4] (with 315 and clavulanate) it was 0.5 mg/L.

(Values after patent US20160122320A1, “USEFUL COMBINATIONS OF MONOBACTAM ANTIBIOTICS WITH BETA-LACTAMASE INHIBITORS” (Basilea Pharmaceutica AG, priority 2005, published 2016).)
